{"source": "patent US20220128542A1", "about": "“TREATMENT EFFICIENCY EVALUATION” (TX MEDIC AB, priority 2019, published 2022)", "system": "Mouse cortical neurons", "experiment": "Gene expression array and pathway analysis in cortical neurons (Example 2)", "format": "cell-based", "conditions": "for differentially expressed genes: cortical neuron section (printed motor neurons)", "description": "For each cell line, n=8×25 cm^2 culture flasks were set up. Two flasks were harvested for each cell type on the day of treatment (24 hours after seeding). This represents the Day0 time point. From the remaining flasks, three flasks were treated with Control Medium and three were treated with Culture Medium (CM) containing LMW-DS to give a final concentration of 0.01 mg/ml. Cells from the treated flasks were collected after 48 hours. Therefore the collected data represent (a) untreated cells (Day0 Controls and Day2 Controls) and (b) cells treated with LMW-DS for 48 hours (Day2 LMW-DS treated).\n25 cm^2 flasks were coated by adding 2 ml per flask of a solution of 50 μg/ml poly-d-lysine in Hank's balanced salt solution (HBSS) and incubating overnight at 37° C. in the dark. Flasks were washed with cell culture water and air-dried for 30 min in the dark. Flasks were coated by adding 1 ml per flask of a solution of 25 μg/ml laminin in phosphate-buffered saline (PBS) and incubating for 2 hour at 37° C. in the dark. The laminin flasks were washed with PBS three times before plating cells.\nMedium was prepared by adding 10 ml B-27 Serum-Free Supplement and 2.5 ml GlutaMAX™-I Supplement to 500 ml of Neurobasal medium. The medium was pre-warmed to 37° C. Cells from 12 vials were thawed sequentially in a 37° C. water bath for no longer than 2 min and gently transferred into a 15 ml tube. 9 ml of medium was gently added drop-wise to each. The cell suspension was mixed by inverting the tubes carefully twice.\nThe cells were centrifuged for 5 minutes at 200×g. Supernatant was removed (to the last 0.5 ml) and cells were gently re-suspended by trituration. The cells from the 12 vials were mixed and distributed equally into the previously coated 25 cm^2 flasks (n=8). Cells were incubated at 37° C. with 5% CO2 for 24 hours.\nA fresh 100× LMW-DS stock (1.0 mg/ml) was prepared in sterile DMEM-F12. The concentrated drug stock was sterile filtered and added to the respective culture media (19.6 ml CM and 0.4 ml LMW-DS stock solution). The Control was made using 19.6 ml CM and 0.4 ml of DMEM-F12. LMW-DS and CM were added to the respective flasks (5 ml each) to reach the 0.01 mg/ml concentration of LMW-DS in each dish with a total of 10 ml CM each.\nCM was aspirated into a clean and labelled 15 ml Falcon tube. The flasks (without culture medium) were placed into the −80° C. freezer for 30 minutes. The CM in the Falcon tubes was spun at 3000×g for 5 minutes. Supernatant was removed and the small pellet was re-suspended in 2.5 ml Trizol:Water (4:1) solution at room temperature (RT, ˜22° C.).\nThe frozen flasks were removed one-by one from the freezer and the Trizol-Water from the appropriate tubes was moved to the flask. Flasks were left at RT for 5 minutes before the content was aspirated back into the 15 ml Falcon tube (after washing the bottom of the flask with the solution thoroughly). The flasks were inspected under the microscope to ensure full removal of cells. The collected lysates in the 15 ml Falcon tubes were placed into the −80° C. freezer.\nFalcon tubes containing the homogenates were removed from the freezer and stored for 5 minutes at RT to permit the complete dissociation of nucleoprotein complexes.\nTwo aliquots of 1 ml lysate were removed from each sample and 200 μl of chloroform was added to each (0.2 ml of chloroform per 1 ml of TRIzol Reagent used during the cell lysis step) and the tube was shaken vigorously. Samples were stored at RT for 2-3 minutes and subsequently centrifuged at 12,000×g for 15 minutes at 4° C.\nThe mixture separated into three layers: a lower red phenol-chloroform phase, an interphase and a colorless upper aqueous phase. The RNA remained in the top aqueous phase, DNA in the white middle (interphase) phase and protein in the pink bottom (organic) phase. The top ¾ of the aqueous phase was transferred to a new clean Eppendorf tube.\nThe RNA was precipitated from the aqueous phase by adding an equal amount of 100% ethanol. […]", "key": {"[1]": {"conditions": "cortical neurons, 0.01 mg/ml, 48 hours"}}}
{"substance": "sodium salt of dextran sulfate [LMW-DS]", "values": [{"measurement": "differentially expressed genes", "setting": "D0 control vs D2 LMW-DS treated, 0.01 mg/ml", "value": 609, "unit": "genes"}, {"measurement": "differentially expressed genes", "setting": "second comparison, printed as D0 control to D2 LMW-DS treated", "value": 247, "unit": "genes"}, {"measurement": "number of genes: no effect / abolished nutrient effect", "setting": "[1]", "value": 572}, {"measurement": "number of genes: no effect / new effect induced by LMW-DS", "setting": "[1]", "value": 19}, {"measurement": "number of genes: no effect / total", "setting": "[1]", "value": 591}, {"measurement": "number of genes: significant downregulation / abolished nutrient effect", "setting": "[1]", "value": 7}, {"measurement": "number of genes: significant downregulation / enhanced response to nutrients", "setting": "[1]", "value": 158}, {"measurement": "number of genes: significant downregulation / new effect induced by LMW-DS", "setting": "[1]", "value": 22}, {"measurement": "number of genes: significant downregulation / not different from control", "setting": "[1]", "value": 95}, {"measurement": "number of genes: significant downregulation / total", "setting": "[1]", "value": 282}, {"measurement": "number of genes: significant upregulation / abolished nutrient effect", "setting": "[1]", "value": 33}, {"measurement": "number of genes: significant upregulation / enhanced response to nutrients", "setting": "[1]", "value": 43}, {"measurement": "number of genes: significant upregulation / new effect induced by LMW-DS", "setting": "[1]", "value": 7}, {"measurement": "number of genes: significant upregulation / not different from control", "setting": "[1]", "value": 221}, {"measurement": "number of genes: significant upregulation / total", "setting": "[1]", "value": 304}, {"measurement": "number of genes: total / abolished nutrient effect", "setting": "[1]", "value": 612}, {"measurement": "number of genes: total / enhanced response to nutrients", "setting": "[1]", "value": 612}, {"measurement": "number of genes: total / new effect induced by LMW-DS", "setting": "[1]", "value": 48}, {"measurement": "number of genes: total / not different from control", "setting": "[1]", "value": 316}, {"measurement": "number of genes: total / total", "setting": "[1]", "value": 1177}]}
